Measurements reported in ChEMBL document CHEMBL3244299, “Allylic esters as potential antitumor agents. Derivatives and analogues of 2,3-bis(hydroxymethyl)-7-oxabicyclo[2.2.1]hept-2-ene” (J Med Chem, 1979).
Active and inactive are the calls of the source. No cut-off for these calls is given here.

Columns and labels:
[1] = species on record: Mus musculus; assay: Toxicity in mouse allografted with mouse P388 cells; format: organism-based
[2] = tested on: L1210; assay: Antitumor activity against mouse L1210 cells allografted in mouse; format: functional, cell-based
[3] = tested on: L1210; assay: Cytotoxicity against mouse L1210 cells assessed as growth inhibition at 10^-5 M after 40 hrs relative to control; format: functional; conditions: L1210, 40 h, read-out: GI
[4] = tested on: L1210; assay: Cytotoxicity against mouse L1210 cells assessed as growth inhibition at 10^-4 M after 40 hrs relative to control; format: functional; conditions: L1210, 40 h, read-out: GI
[5] = tested on: L1210; assay: Cytotoxicity against mouse L1210 cells assessed as growth inhibition at 10^-6 M after 40 hrs relative to control; format: functional; conditions: L1210, 40 h, read-out: GI
[6] = tested on: L1210; assay: Cytotoxicity against mouse L1210 cells assessed as growth inhibition after 40 hrs; format: functional
[7] = tested on: P388; assay: Antitumor activity against mouse P388 cells allografted in mouse assessed as tumor growth inhibition at 25 mg/kg relative to control; format: functional

Row | Compound | Activity [1] | Activity [2] | inhibition of growth at 10 µM [3] [%] | inhibition of growth at 100 µM [4] [%] | inhibition of growth at 1 µM [5] [%] | ID50 [6] | IC50 ([6]; Mus musculus, L1210, 40 h, read-out: ID50 (the source's name)) [nM] | T/C [7] [%]
1 | CNC(=O)OCC1=C(COC(=O)NC)[C@@H]2O[C@H]1C(C(=O)OC)=C2C(=O)OC | Toxic | – | – | – | – | – | – | –
2 | CCOC(=O)N1[C@@H]2O[C@@H](C(COC(C)=O)=C2COC(C)=O)N1C(=O)OCC | – | inactive | 41 | 78 | 13 | 3 ×10⁻⁵ M | – | –
3 | COC(=O)C1=C(C(=O)OC)[C@H]2O[C@@H]1C(COC(C)=O)=C2COC(C)=O | – | inactive | 93 | 93 | 93 | – | < 1000 | –
4 | CCCCNC(=O)OCC1=C(COC(=O)NCCCC)[C@@H]2O[C@H]1C(C(=O)OC)=C2C(=O)OC | – | – | – | – | – | – | – | 123
5 | CC(=O)OCC1=C(COC(C)=O)[C@@H]2O[C@H]1[C@H](O)[C@@H]2O | – | inactive | 3 | 41 | – | >1 ×10⁻⁴ M | – | –
6 | CC(=O)OCC1=C(COC(C)=O)[C@@H]2O[C@H]1[C@H](OC(C)=O)[C@@H]2OC(C)=O | – | inactive | 19 | 34 | 1 | >1 ×10⁻⁴ M | – | –
